Experimental data as given in PubChem BioAssay AID1259407 (Chemical Carcinogenesis Research Information System (CCRIS), 2018).
Activity calls are given as the source filed them. The rule behind the calls is not given here.

Test system: CCRIS mutagenicity, Ames/micronucleus/aberration tests
Assay: CCRIS mutagenicity studies
[1] = Test System: AMES SALMONELLA TYPHIMURIUM, Strain/Indicator: TA100, Metabolic Activation: NONE, Method: STANDARD PLATE

Compound: BrC(Br)Br
- mutagenic call (End Point: IN VITRO CHROMOSOMAL ABERRATIONS, Test System: CHO CELLS, Metabolic Activation: NONE): inactive; negative
- mutagenic call (End Point: IN VITRO CHROMOSOMAL ABERRATIONS, Test System: CHO CELLS, Metabolic Activation: RAT, LIVER, S-9, AROCLOR 1254): inactive; negative
- mutagenic call (End Point: IN VIVO MICRONUCLEUS, Test System: BONE MARROW POLYCHROMATIC ERYTHROCYTES, Species: MOUSE, Strain/Sex: DDY/MALE, Route: IP): inactive; negative
- mutagenic call (Test System: AMES SALMONELLA TYPHIMURIUM, Strain/Indicator: RSJ100, Metabolic Activation: NONE, Method: PREINCUBATION): active; positive
- mutagenic call (Test System: AMES SALMONELLA TYPHIMURIUM, Strain/Indicator: RSJ100, Metabolic Activation: NONE, Method: STANDARD PLATE): active; positive
- mutagenic call (Test System: AMES SALMONELLA TYPHIMURIUM, Strain/Indicator: RSJ100, Metabolic Activation: RAT LIVER S-9, Method: PREINCUBATION): inactive; negative
- mutagenic call (Test System: AMES SALMONELLA TYPHIMURIUM, Strain/Indicator: TA97, Metabolic Activation: HAMSTER, LIVER, S-9 (10% OR 30%), AROCLOR 1254, Method: PREINCUBATION): inactive; negative
- mutagenic call (Test System: AMES SALMONELLA TYPHIMURIUM, Strain/Indicator: TA97, Metabolic Activation: NONE, Method: PREINCUBATION): inactive; negative
- mutagenic call (Test System: AMES SALMONELLA TYPHIMURIUM, Strain/Indicator: TA97, Metabolic Activation: RAT, LIVER, S-9 (10% OR 30%), AROCLOR 1254, Method: PREINCUBATION): inactive; negative
- mutagenic call (Test System: AMES SALMONELLA TYPHIMURIUM, Strain/Indicator: TA98, Metabolic Activation: HAMSTER, LIVER, S-9 (5% OR 10%), AROCLOR 1254, Method: PREINCUBATION): inactive; negative
- mutagenic call (Test System: AMES SALMONELLA TYPHIMURIUM, Strain/Indicator: TA98, Metabolic Activation: HAMSTER, LIVER, S-9, AROCLOR 1254, Method: PREINCUBATION): inactive; negative
- mutagenic call (Test System: AMES SALMONELLA TYPHIMURIUM, Strain/Indicator: TA98, Metabolic Activation: NONE, Method: STANDARD PLATE): inactive; negative
- mutagenic call (Test System: AMES SALMONELLA TYPHIMURIUM, Strain/Indicator: TA98, Metabolic Activation: RAT LIVER S-9, Method: PREINCUBATION): active; positive
- mutagenic call (Test System: AMES SALMONELLA TYPHIMURIUM, Strain/Indicator: TA98, Metabolic Activation: RAT, LIVER, S-9 (10% OR 30%), AROCLOR 1254, Method: PREINCUBATION): inactive; negative
- mutagenic call (Test System: AMES SALMONELLA TYPHIMURIUM, Strain/Indicator: TA98, Metabolic Activation: RAT, LIVER, S-9, AROCLOR 1254, Method: PREINCUBATION): inactive; negative
- mutagenic call (Test System: AMES SALMONELLA TYPHIMURIUM, Strain/Indicator: TA98, Metabolic Activation: RAT, LIVER, S-9, AROCLOR 1254, Method: STANDARD PLATE): inactive; negative
- mutagenic call (Test System: AMES SALMONELLA TYPHIMURIUM, Strain/Indicator: TA100, Metabolic Activation: HAMSTER, LIVER, S-9 (10% OR 30%), AROCLOR 1254, Method: PREINCUBATION): inactive; negative
- mutagenic call (Test System: AMES SALMONELLA TYPHIMURIUM, Strain/Indicator: TA100, Metabolic Activation: HAMSTER, LIVER, S-9, AROCLOR 1254, Method: PREINCUBATION): inactive; negative
- mutagenic call (Test System: AMES SALMONELLA TYPHIMURIUM, Strain/Indicator: TA100, Metabolic Activation: NONE, Method: DESICCATOR): active; positive
- mutagenic call (Test System: AMES SALMONELLA TYPHIMURIUM, Strain/Indicator: TA100, Metabolic Activation: NONE, Method: FLUCTUATION TEST): active; positive
- mutagenic call [1]: inactive; negative
- mutagenic call (Test System: AMES SALMONELLA TYPHIMURIUM, Strain/Indicator: TA100, Metabolic Activation: RAT LIVER S-9, Method: PREINCUBATION): inactive; negative
- mutagenic call (Test System: AMES SALMONELLA TYPHIMURIUM, Strain/Indicator: TA100, Metabolic Activation: RAT, LIVER, S-9 (10% OR 30%), AROCLOR 1254, Method: PREINCUBATION): inactive; negative
- mutagenic call (Test System: AMES SALMONELLA TYPHIMURIUM, Strain/Indicator: TA100, Metabolic Activation: RAT, LIVER, S-9, AROCLOR 1254, Method: FLUCTUATION TEST): inactive; negative
- mutagenic call (Test System: AMES SALMONELLA TYPHIMURIUM, Strain/Indicator: TA100, Metabolic Activation: RAT, LIVER, S-9, AROCLOR 1254, Method: PREINCUBATION): inactive; negative
- mutagenic call (Test System: AMES SALMONELLA TYPHIMURIUM, Strain/Indicator: TA100, Metabolic Activation: RAT, LIVER, S-9, AROCLOR 1254, Method: STANDARD PLATE): inactive; negative
- mutagenic call (Test System: AMES SALMONELLA TYPHIMURIUM, Strain/Indicator: TA1535, Metabolic Activation: HAMSTER, LIVER, S-9 (10% OR 30%), AROCLOR 1254, Method: PREINCUBATION): inactive; negative
- mutagenic call (Test System: AMES SALMONELLA TYPHIMURIUM, Strain/Indicator: TA1535, Metabolic Activation: HAMSTER, LIVER, S-9, AROCLOR 1254, Method: PREINCUBATION): inactive; negative
- mutagenic call (Test System: AMES SALMONELLA TYPHIMURIUM, Strain/Indicator: TA1535, Metabolic Activation: NONE, Method: DESICCATOR): active; positive
- mutagenic call (Test System: AMES SALMONELLA TYPHIMURIUM, Strain/Indicator: TA1535, Metabolic Activation: NONE, Method: PREINCUBATION): inactive; negative
- mutagenic call (Test System: AMES SALMONELLA TYPHIMURIUM, Strain/Indicator: TA1535, Metabolic Activation: NONE, Method: STANDARD PLATE): inactive; negative
- mutagenic call (Test System: AMES SALMONELLA TYPHIMURIUM, Strain/Indicator: TA1535, Metabolic Activation: RAT, LIVER, S-9 (10% OR 30%), AROCLOR 1254, Method: PREINCUBATION): inactive; negative
- mutagenic call (Test System: AMES SALMONELLA TYPHIMURIUM, Strain/Indicator: TA1535, Metabolic Activation: RAT, LIVER, S-9, AROCLOR 1254, Method: PREINCUBATION): inactive; negative
- mutagenic call (Test System: AMES SALMONELLA TYPHIMURIUM, Strain/Indicator: TA1535, Metabolic Activation: RAT, LIVER, S-9, AROCLOR 1254, Method: STANDARD PLATE): inactive; negative
- mutagenic call (Test System: AMES SALMONELLA TYPHIMURIUM, Strain/Indicator: TA1537, Metabolic Activation: HAMSTER, LIVER, S-9 (10% OR 30%), AROCLOR 1254, Method: PREINCUBATION): inactive; negative
- mutagenic call (Test System: AMES SALMONELLA TYPHIMURIUM, Strain/Indicator: TA1537, Metabolic Activation: HAMSTER, LIVER, S-9, AROCLOR 1254, Method: PREINCUBATION): inactive; negative
- mutagenic call (Test System: AMES SALMONELLA TYPHIMURIUM, Strain/Indicator: TA1537, Metabolic Activation: NONE, Method: PREINCUBATION): inactive; negative
- mutagenic call (Test System: AMES SALMONELLA TYPHIMURIUM, Strain/Indicator: TA1537, Metabolic Activation: NONE, Method: STANDARD PLATE): inactive; negative
- mutagenic call (Test System: AMES SALMONELLA TYPHIMURIUM, Strain/Indicator: TA1537, Metabolic Activation: RAT, LIVER, S-9 (10% OR 30%), AROCLOR 1254, Method: PREINCUBATION): inactive; negative
- mutagenic call (Test System: AMES SALMONELLA TYPHIMURIUM, Strain/Indicator: TA1537, Metabolic Activation: RAT, LIVER, S-9, AROCLOR 1254, Method: PREINCUBATION): inactive; negative
- mutagenic call (Test System: AMES SALMONELLA TYPHIMURIUM, Strain/Indicator: TA1537, Metabolic Activation: RAT, LIVER, S-9, AROCLOR 1254, Method: STANDARD PLATE): inactive; negative
- mutagenic call (Test System: MOUSE LYMPHOMA, Strain/Indicator: L5178Y (TK+/TK-), Metabolic Activation: NONE, Method: SUSPENSION/PLATE): active; positive
- mutagenic call (Test System: MOUSE LYMPHOMA, Strain/Indicator: L5178Y (TK+/TK-), Metabolic Activation: RAT, LIVER, S-9, AROCLOR 1254, Method: SUSPENSION/PLATE): active; positive
- mutagenic call (Test System: UDS RAT HEPATOCYTES, Strain/Indicator: THY INCORP, Metabolic Activation: NONE, Method: AUTORADIOGRAPHY): inactive; negative

Compound: NN(CCO)c1ccn([C@@H]2O[C@H](CO)[C@@H](O)[C@H]2O)c(=O)n1
- mutagenic call (Test System: CHINESE HAMSTER V-79, Strain/Indicator: V-79/6-THIOGUANINE, Metabolic Activation: NONE, Method: REPLATING): inactive; negative

Compound: O=C1NC(=O)C(Cl)C1=C(Cl)Cl (stereo unspecified)
- mutagenic call [1]: active; positive
